# Assay results reported in US10681909B2, “Herbicidal triazoles” (FMC Corporation, priority 2014, dated 2020).
# Columns and labels:
# Experiment in all cases: Test C preemergence
# galium = assay type: in vivo, Galium aparine; details: for Plant response rating (scale of 0 to 100 where 0 is no effect and 100 is complete control): Galium, preemergence; for Galium plant response rating (0 to 100): Preemergence, visual rating after 13 to 15 d
# Description: (§1) Seeds of plant species selected from blackgrass (Alopecurus myosuroides), ryegrass, Italian (Italian ryegrass, Lolium multiflorum), wheat (winter wheat, Triticum aestivum), galium (catchweed bedstraw, Galium aparine), corn (Zea mays), crabgrass, large (large crabgrass, Digitaria sanguinalis), foxtail, giant, (giant foxtail, Setaria faberii), johnsongrass (Sorghum halepense), lambsquarters (Chenopodium album), morningglory (Ipomoea coccinea), nutsedge, yellow (yellow nutsedge, Cyperus esculentus), pigweed (Amaranthus retroflexus), ragweed (common ragweed, Ambrosia elatior), soybean (Glycine max), barnyardgrass (Echinochloa crus-galli), oilseed rape (Brassica napus), waterhemp (common waterhemp, Amaranthus rudis), and velvetleaf (Abutilon theophrasti) were planted into a blend of loam soil and sand and treated preemergence with test chemicals formulated in a non-phytotoxic solvent mixture which included a surfactant. At the same time, plants selected from these crop and weed species and also chickweed (common chickweed, Stellaria media), oat, wild (wild oat, Avena fatua), and kochia (Kochia scoparia), were planted in pots containing Sunshine Redi-Earth® planting medium comprising spaghnum peat moss, vermiculite, starter nutrients and dolomitic limestone and treated with postemergence applications of test chemicals formulated in the same manner. Plants ranged in height from 2 to 18 cm (1- to 4-leaf stage) for postemergence treatments. […] A dash (-) response means no test result.
# corn = assay type: in vivo, Zea mays; details: for Plant response rating (scale of 0 to 100 where 0 is no effect and 100 is complete control): Corn, preemergence; for Corn plant response rating (0 to 100): Preemergence, visual rating after 13 to 15 d
# Description: as §1
# foxtail, giant = assay type: in vivo, Setaria faberii; details: for Plant response rating (scale of 0 to 100 where 0 is no effect and 100 is complete control): Foxtail, Giant, preemergence; for Foxtail, Giant plant response rating (0 to 100): Preemergence, visual rating after 13 to 15 d
# Description: as §1
# lambsquarters = assay type: in vivo, Chenopodium album; details: for Plant response rating (scale of 0 to 100 where 0 is no effect and 100 is complete control): Lambsquarters, preemergence; for Lambsquarters plant response rating (0 to 100): Preemergence, visual rating after 13 to 15 d
# Description: as §1
# ragweed = assay type: in vivo, Ambrosia elatior; details: for Ragweed plant response rating (0 to 100): Preemergence, visual rating after 13 to 15 d; for Plant response rating (scale of 0 to 100 where 0 is no effect and 100 is complete control): Ragweed, preemergence
# Description: as §1
# barnyardgrass = assay type: in vivo, Echinochloa crus-galli; details: for Plant response rating (scale of 0 to 100 where 0 is no effect and 100 is complete control): Barnyardgrass, preemergence; for Barnyardgrass plant response rating (0 to 100): Preemergence, visual rating after 13 to 15 d
# Description: as §1
# velvetleaf = assay type: in vivo, Abutilon theophrasti; details: for Velvetleaf plant response rating (0 to 100): Preemergence, visual rating after 13 to 15 d; for Plant response rating (scale of 0 to 100 where 0 is no effect and 100 is complete control): Velvetleaf, preemergence, 250 g ai/ha
# Description: as §1
Structure (SMILES),Plant response rating (scale of 0 to 100 where 0 is no effect and 100 is complete control) (galium; 125 g ai/ha),Plant response rating (scale of 0 to 100 where 0 is no effect and 100 is complete control) (galium; 250 g ai/ha),Galium plant response rating (0 to 100) (galium; 31 g ai/ha),Galium plant response rating (0 to 100) (galium; 62 g ai/ha),Plant response rating (scale of 0 to 100 where 0 is no effect and 100 is complete control) (corn; 125 g ai/ha),Plant response rating (scale of 0 to 100 where 0 is no effect and 100 is complete control) (corn; 250 g ai/ha),Corn plant response rating (0 to 100) (corn; 31 g ai/ha),Corn plant response rating (0 to 100) (corn; 62 g ai/ha),"Plant response rating (scale of 0 to 100 where 0 is no effect and 100 is complete control) (foxtail, giant; 125 g ai/ha)","Plant response rating (scale of 0 to 100 where 0 is no effect and 100 is complete control) (foxtail, giant; 250 g ai/ha)","Foxtail, Giant plant response rating (0 to 100) (foxtail, giant; 31 g ai/ha)","Foxtail, Giant plant response rating (0 to 100) (foxtail, giant; 62 g ai/ha)",Plant response rating (scale of 0 to 100 where 0 is no effect and 100 is complete control) (lambsquarters; 125 g ai/ha),Plant response rating (scale of 0 to 100 where 0 is no effect and 100 is complete control) (lambsquarters; 250 g ai/ha),Lambsquarters plant response rating (0 to 100) (lambsquarters; 31 g ai/ha),Lambsquarters plant response rating (0 to 100) (lambsquarters; 62 g ai/ha),Ragweed plant response rating (0 to 100) (ragweed; 31 g ai/ha),Ragweed plant response rating (0 to 100) (ragweed; 62 g ai/ha),Plant response rating (scale of 0 to 100 where 0 is no effect and 100 is complete control) (ragweed; 125 g ai/ha),Plant response rating (scale of 0 to 100 where 0 is no effect and 100 is complete control) (ragweed; 250 g ai/ha),other results
"CCCc1nc(-c2ccc(F)cc2)nn1Cc1ccnc(C(F)(F)F)c1 [Compound 6, 4-[[3-(4-fluorophenyl)-5-propyl-1H-1,2,4-triazol-1-yl]methyl]-2-(trifluoromethyl)pyridine]",100,100,90,98,50,50,15,35,100,100,100,100,98,98,98,98,20,20,55,80,Plant response rating (scale of 0 to 100 where 0 is no effect and 100 is complete control) (barnyardgrass; 125 g ai/ha): 95; Plant response rating (scale of 0 to 100 where 0 is no effect and 100 is complete control) (barnyardgrass; 250 g ai/ha): 98; Barnyardgrass plant response rating (0 to 100) (barnyardgrass; 31 g ai/ha): 50; Barnyardgrass plant response rating (0 to 100) (barnyardgrass; 62 g ai/ha): 75; Velvetleaf plant response rating (0 to 100) (velvetleaf; 31 g ai/ha): 20; Velvetleaf plant response rating (0 to 100) (velvetleaf; 62 g ai/ha): 75; Plant response rating (scale of 0 to 100 where 0 is no effect and 100 is complete control) (velvetleaf): 100
"COc1nc(-c2ccc(F)cc2)nn1Cc1ccnc(C(F)(F)F)c1 [Compound 9, 4-[[3-(4-fluorophenyl)-5-methoxy-1H-1,2,4-triazol-1-yl]methyl]-2-(trifluoromethyl)pyridine]",90,98,5,5,25,55,0,5,100,100,80,100,98,98,70,85,25,60,60,85,Plant response rating (scale of 0 to 100 where 0 is no effect and 100 is complete control) (barnyardgrass; 125 g ai/ha): 70; Plant response rating (scale of 0 to 100 where 0 is no effect and 100 is complete control) (barnyardgrass; 250 g ai/ha): 85; Barnyardgrass plant response rating (0 to 100) (barnyardgrass; 31 g ai/ha): 5; Barnyardgrass plant response rating (0 to 100) (barnyardgrass; 62 g ai/ha): 35; Velvetleaf plant response rating (0 to 100) (velvetleaf; 31 g ai/ha): 20; Velvetleaf plant response rating (0 to 100) (velvetleaf; 62 g ai/ha): 25; Plant response rating (scale of 0 to 100 where 0 is no effect and 100 is complete control) (velvetleaf): 60
